Measured values from US20120132797A1, “MEANS AND METHODS FOR DIAGNOSING THYROID DISORDERS” (BASF SE, priority 2009, published 2012).

System: Wistar (Crl:WI(Han)) rats
Test: Mass spectrometry-based plasma metabolite profiling of rats treated with known inducers of thyroid function impairment
Assay type: in vivo, rat
Settings: ratio of group medians vs controls
Source text: At the beginning of the study the animals were 10-11 weeks old. Each dose group in the studies consisted of five rats per sex, and was compared with controls (10 rats per sex). […] The dose levels were chosen to show the typical overt (high dose) and slight (low dose) toxicological symptoms of the substances as described in the literature or in BASF internal study reports.
Blood samples were withdrawn from the retro-orbital sinus in all rats under isoflurane anesthesia on study days 7, 14 and 28 after a fasting period of 16-20 hours.
For mass spectrometry-based metabolite profiling analysis, plasma samples were extracted by a proprietary method which delivers a polar and a non-polar fraction. For GC-MS analysis, the non-polar fraction was treated with methanol under acidic conditions to yield the fatty acid methyl esters. Both fractions were further derivatised with Omethyl-hydroxyamine hydrochloride and pyridine to convert oxo groups to Omethyloximes and subsequently with a silylating agent before analysis.
In LC-MS/MS analysis, both fractions were reconstituted in appropriate solvent mixtures. HPLC was performed by gradient elution on reversed phase separation columns. For mass spectrometric detection metanomics proprietary technology was applied, which allows target and high sensitivity MRM (Multiple Reaction Monitoring) profiling in parallel to a full screen analysis. […] Moreover, several hundred additional analytes giving a fingerprint of the sample were included in the methods.
Following comprehensive analytical validation steps, the data for each analyte were normalized against data from pool samples. These samples were run in parallel through the whole process to account for process variability.
The sex- and day-stratified heteroscedastic t-test (“Welch test”) was applied to compare treated groups with respective controls. p-Values and ratios of corresponding group medians were collected as metabolic profiles and fed into a database.

[1] = female rats, fh7 (study day 7), Table 3
[2] = female rats, fh14 (study day 14), Table 3
[3] = female rats, fh28 (study day 28), Table 3
[4] = male rats, mh7 (study day 7), Table 4
[5] = male rats, mh14 (study day 14), Table 4
[6] = male rats, mh28 (study day 28), Table 4

Cc1c[nH]nc1C.O=P(O)(O)O [3,4-Dimethylpyrazolphosphat]
Arachidonic acid (C20:cis[58,11,14]4) [1]: 1.36
Behenic acid (C22:0) [1]: 1.31
Cholesterol [1]: 1.24
Cysteine [1]: 0.78
Docosahexaenoic acid (C22:cis[4,7,10,13,16,19]6) [1]: 2.15
Dodecanol [1]: 1.06
Eicosanoic acid (C20:0) [1]: 1.14
Glycerol phosphate [1]: 1.29
Heptadecanoic acid (C17:0) [1]: 1.30
Linoleic acid (C18:cis[9,12]2) [1]: 1.29
Nervonic acid C24:(cis[15]1) [1]: 1.60
Palmitic acid (C16:0) [1]: 1.34
Sphingomyelin (d18:1, C16:0) [1]: 1.28
Stearic acid (C18:0) [1]: 1.30
Threonic acid [1]: 1.51
dihomo-gamma-Linolenic acid (C20:cis[8,11,14]3) [1]: 1.36
erythro-Sphingosine [1]: 1.40
gamma-Linolenic acid (C18:cis[6,9,12]3) [1]: 1.17
myo-Inositol-2-phosphate [1]: 1.26
threo-Sphingosine [1]: 1.27
Arachidonic acid (C20:cis[58,11,14]4) [2]: 1.75
Behenic acid (C22:0) [2]: 1.82
Cholesterol [2]: 1.73
Cysteine [2]: 1.29
Docosahexaenoic acid (C22:cis[4,7,10,13,16,19]6) [2]: 2.19
Dodecanol [2]: 1.17
Eicosanoic acid (C20:0) [2]: 1.61
Glycerol phosphate [2]: 1.69
Heptadecanoic acid (C17:0) [2]: 1.34
Linoleic acid (C18:cis[9,12]2) [2]: 1.29
Nervonic acid C24:(cis[15]1) [2]: 1.60
Palmitic acid (C16:0) [2]: 1.34
Sphingomyelin (d18:1, C16:0) [2]: 1.35
Stearic acid (C18:0) [2]: 1.71
Threonic acid [2]: 1.17
dihomo-gamma-Linolenic acid (C20:cis[8,11,14]3) [2]: 1.80
erythro-Sphingosine [2]: 1.90
gamma-Linolenic acid (C18:cis[6,9,12]3) [2]: 1.87
myo-Inositol-2-phosphate [2]: 1.78
threo-Sphingosine [2]: 1.72
Arachidonic acid (C20:cis[58,11,14]4) [3]: 1.67
Behenic acid (C22:0) [3]: 1.43
Cholesterol [3]: 1.69
Cysteine [3]: 1.00
Docosahexaenoic acid (C22:cis[4,7,10,13,16,19]6) [3]: 2.25
Dodecanol [3]: 1.26
Eicosanoic acid (C20:0) [3]: 1.38
Glycerol phosphate [3]: 1.55
Heptadecanoic acid (C17:0) [3]: 1.39
Linoleic acid (C18:cis[9,12]2) [3]: 1.44
Nervonic acid C24:(cis[15]1) [3]: 1.78
Palmitic acid (C16:0) [3]: 1.55
Sphingomyelin (d18:1, C16:0) [3]: 1.58
Stearic acid (C18:0) [3]: 1.62
Threonic acid [3]: 1.36
dihomo-gamma-Linolenic acid (C20:cis[8,11,14]3) [3]: 1.86
erythro-Sphingosine [3]: 1.54
gamma-Linolenic acid (C18:cis[6,9,12]3) [3]: 1.96
myo-Inositol-2-phosphate [3]: 1.91
threo-Sphingosine [3]: 1.58

CCC1(c2ccccc2)C(=O)NC(=O)NC1=O [Phenobarbital sodium]
Behenic acid (C22:0) [4]: 1.03
Cholesterol [4]: 1.16
Citrate [4]: 0.89
Cytosine [4]: 1.06
Galactose, lipid fraction [4]: 1.12
Glycerol phosphate [4]: 1.05
Glycine [4]: 0.95
Lignoceric acid (C24:0) [4]: 1.21
Mannose [4]: 1.08
Nervonic acid C24:(cis[15]1) [4]: 1.27
Phospha-tidylcholine (C18:0, 18:2) [4]: 1.13
Sphingomyelin (d18:1, C16:0) [4]: 1.30
Stearic acid (C18:0) [4]: 0.99
Threonic acid [4]: 1.86
dihomo-gamma-Linolenic acis (C20:cis[8,11,14]3) [4]: 1.06
erythro-Sphingosine [4]: 1.39
myo-Inositol-2-phosphate [4]: 1.26
threo-Sphingosine [4]: 1.39
Behenic acid (C22:0) [5]: 1.11
Cholesterol [5]: 1.09
Citrate [5]: 0.93
Cytosine [5]: 1.07
Galactose, lipid fraction [5]: 1.18
Glycerol phosphate [5]: 1.04
Glycine [5]: 1.18
Lignoceric acid (C24:0) [5]: 1.18
Mannose [5]: 1.05
Nervonic acid C24:(cis[15]1) [5]: 1.77
Phospha-tidylcholine (C18:0, 18:2) [5]: 1.14
Sphingomyelin (d18:1, C16:0) [5]: 1.55
Stearic acid (C18:0) [5]: 1.19
Threonic acid [5]: 1.95
dihomo-gamma-Linolenic acis (C20:cis[8,11,14]3) [5]: 1.03
erythro-Sphingosine [5]: 1.56
myo-Inositol-2-phosphate [5]: 1.16
threo-Sphingosine [5]: 1.61
Behenic acid (C22:0) [6]: 1.21
Cholesterol [6]: 1.18
Citrate [6]: 0.96
Cytosine [6]: 0.98
Galactose, lipid fraction [6]: 1.06
Glycerol phosphate [6]: 1.05
Glycine [6]: 1.12
Lignoceric acid (C24:0) [6]: 1.25
Mannose [6]: 1.09
Nervonic acid C24:(cis[15]1) [6]: 1.65
Phospha-tidylcholine (C18:0, 18:2) [6]: 1.05
Sphingomyelin (d18:1, C16:0) [6]: 1.44
Stearic acid (C18:0) [6]: 1.09
Threonic acid [6]: 1.88
dihomo-gamma-Linolenic acis (C20:cis[8,11,14]3) [6]: 0.96
erythro-Sphingosine [6]: 1.65
myo-Inositol-2-phosphate [6]: 1.15
threo-Sphingosine [6]: 1.50
